Source: patent publication US12365667B2, “Sulfone pyridine alkyl amide-substituted heteroaryl compounds” (BRISTOL-MYERS SQUIBB COMPANY, priority 2017, dated 2025)

test system: IFNα-induced STAT phosphorylation (pSTAT5) in human whole blood; assay: IFNα-Induced STAT Phosphorylation in Human Whole Blood; format: cell-based; conditions: 1 h incubation with compound, 1000 U/mL recombinant human IFNα A/D for 15 min, pSTAT5 in CD3 positive population, read-out: IFNα-Induced Stat Phosph. (IC50)

| IC50 [nM] | SMILES |
| --- | --- |
| 94 | CNC(=O)c1cnc(Nc2ccc(C(F)(F)F)nn2)cc1Nc1ncccc1S(C)(=O)=O [Example 223] |
| 24 | CNC(=O)c1nnc(Nc2cc(C)on2)cc1Nc1ncccc1S(C)(=O)=O [Example 58] |
| 1080 | CCNC(=O)c1nnc(Nc2cc(C3CC3)nc(C)n2)cc1Nc1ncccc1S(C)(=O)=O [compound 212] |
| 18 | CNC(=O)c1nnc(Nc2ccc(C3(C#N)CC3)cn2)cc1Nc1ncccc1S(C)(=O)=O [Example 33] |
| 4 | CNC(=O)c1nnc(Nc2cc(COC)ccn2)cc1Nc1ncccc1S(C)(=O)=O [Example 96] |
| 231 | CCC(O)(CC)c1cnc(Nc2cc(Nc3ncccc3S(C)(=O)=O)c(C(=O)NC)nn2)cc1Cl [Example 147] |

Second part, the compound before the results:

| SMILES | IC50 [nM] |
| --- | --- |
| CNC(=O)c1cnc(Nc2cc(C(F)(F)F)c(C#N)cn2)cc1Nc1ncccc1S(C)(=O)=O [Example 231] | 360 |
| CNC(=O)c1nnc(Nc2ccc(C(C)(C)NC(=O)OC)cn2)cc1Nc1ncccc1S(C)(=O)=O [Example 74] | 4 |
| CNC(=O)c1cnc(NC(=O)C2CC2)cc1Nc1ncccc1S(C)(=O)=O [Example 236] | 13 |
| CNC(=O)c1cnc(Nc2ccc(Cl)cn2)cc1Nc1ncccc1S(C)(=O)=O [Example 217] | 52 |

same assay, conditions: Homo sapiens, 1 h incubation with compound, 1000 U/mL recombinant human IFNα A/D for 15 min, pSTAT5 in CD3 positive population, read-out: IFNα-Induced Stat Phosph. (IC50)

| IC50 [nM] | SMILES |
| --- | --- |
| 648 | [2H]C([2H])([2H])NC(=O)c1nnc(NC(=O)C2CC(F)(F)C2)cc1Nc1ncccc1S(C)(=O)=O [Example 177, 6-(3,3-difluorocyclobutane-1-carboxamido)-N-(methyl-d3)-4-((3-(methylsulfonyl)pyridin-2-yl)amino)pyridazine-3-carboxamide] |
| 12 | [2H]C([2H])([2H])NC(=O)c1nnc(NC(=O)C2CC2)cc1Nc1ncccc1S(C)(=O)=O [Example 159, 6-(cyclopropanecarboxamido)-N-trideuteromethyl-4-((3-(methylsulfonyl)pyridin-2-yl)amino)pyridazine-3-carboxamide] |
